# Measurements as given in US12351559B2 (Biohaven Therapeutics Ltd., priority 2014, dated 2025).
# Biological target: T1, Kv7.2/7.3 (Homo sapiens, UniProt O43525+O43526)
# T1 construct: host or cells: HEK cells, tetracycline-inducible expression
# Test: Kv7.2/7.3 activation assay, QPatch planar patch-clamp, single concentration screen
# Format: cell-based
# Parameters: key: <1.2-fold increase over baseline (−); +/−: as a range from <1.2-fold increase over baseline (−) up to >6-fold increase over baseline (+++); as a range from <1.2-fold increase over baseline (−) up to >6-fold increase over baseline (+++); as a range from <1.2-fold increase over baseline (−) up to >6-fold increase over baseline (+++); >6-fold increase over baseline (+++)
# Conditions: Kv7.2/Kv7.3 co-expressing HEK cells, compound 3 μM, steady-state current at end of 2 s pulse to −30 mV
# Description: The ability of compounds to potentiate K-currents in Kv7.2/7.3 containing HEK cells was assessed using planar patch-clamp on the QPatch automated screening platform.
# Cell Line: The hKv7.2/7.3 cell line was obtained from Chantest (Cleveland, OH 44128) cat. #CT6147. These HEK cells will express the Kv7.2/7.3 ion channels when induced.
# Cell Culture: Cells were maintained in a media containing DMEM/F12; 50/50 (GIBCO cat. #11330), 10% Fetal Bovine Serum (FBS) (GIBCO cat. #26140), 100 units/mL Penicillin-Streptomycin (GIBCO cat. #15140), 0.005 mg/mL Blasticidin (INVIVOGEN cat. #ant-bl-1), 0.5 mg/mL Geneticin (GIBCO cat. #10131), 0.1 mg/ml Zeocin (GIBCO cat. #R25001). Cells used in the electrophysiology assay were maintained in a media without Blasticidin, Geneticin and Zeocin for 2 days and channel expression was induced by adding tetracycline (BIOLINE cat. #BIO-87030) at a final concentration of 1 mg/mL. Cells were grown in T-175 flask to ˜75% confluency. Currents were recorded 24 hours after channel induction.
# Compound Plates: Test compounds were prepared by performing serial dilutions on a Biomek NX^P (BECKMAN COULTER). Final dilutions were made in external recording solution with a final DMSO concentration of 0.1% DMSO. For single concentration screens each plate had 10 μM retigabine as a positive control and 0.1% DMSO as a negative control.
# Electrophysiology: On the day of the experiment cells were washed with Hank's Balanced Salt Solution (HBBS) (GIBCO cat. #14175) and harvested with Tryple (GIBCO cat. #12604). Cells were then centrifuged at 2000 rpm for 5 minutes and resuspended in CHO-S-SFM (GIBCO cat. #12052) at ˜3×10^6 cells/mL. Cells were stirred for 30 minutes before experiments were started. External recording solution contained (in mM): NaCl (145), KCl (4), CaCl2 (2), MgCl2 (1), HEPES (10) and Glucose (10); pH was adjusted to 7.4 with NaOH and the osmolarity was adjusted to 300-305 mOsM with sucrose if necessary. Internal solution contained (in mM): KCl (125), KF (10), EGTA (5), Na2ATP (5), MgCl2 (3.2), HEPES (5); pH was adjusted to 7.2 with KOH and the osmolarity was adjusted to 298-302 mOsM with sucrose.
# Potassium channel activity was measured on the QPatch HTX (Sophion Bioscience) using QPlates with 48-wells/plate. Each cell was taken as an independent experiment and only one compound was tested per well. Potassium channel activity was elicited by holding at −80 mV and stepping to −30 mV for 2 s followed by a 100 ms pulse to −120 mV.
# Single concentration screen: Baseline conditions were obtained by recording 5 sweeps in the external solution only, this was repeated for three applications of the external solution. […] The steady-state current at the end of the 2 s pulse to −30 mV was measured to determine the fold increase from baseline.
row,Kv7.2/7.3 Activity: increase in current over baseline,Structure (SMILES)
1,+,"CC1(C)C[C@@H]1C(=O)Nc1nc2ccc(Cl)cc2n1C1CCC1 [Example 58, (S)-N-(6-chloro-1-cyclobutyl-1H-benzo[d]imidazol-2-yl)-2,2-dimethylcyclopropane-1-carboxamide]"
2,+,"CC(C)[C@H](C)C(=O)Nc1nc2ccc(Cl)cc2n1C1CCC1 [Example 59, (S)-N-(6-chloro-1-cyclobutyl-1H-benzo[d]imidazol-2-yl)-2,3-dimethylbutanamide]"
3,+,"CC(C)(C)CC(=O)Nc1nc2ccc(Cl)cc2n1C1CCC1 [Example 60, N-(6-chloro-1-cyclobutyl-1H-benzo[d]imidazol-2-yl)-3,3-dimethylbutanamide]"
4,+,"O=C(CC1(O)CCC1)Nc1nc2ccc(Cl)cc2n1C1CCC1 [Example 62, N-(6-chloro-1-cyclobutyl-1H-benzo[d]imidazol-2-yl)-2-(1-hydroxycyclobutyl)acetamide]"
5,++,"CC(C)(C)CC(=O)Nc1nc2ccc(Br)cc2n1C1CCC1 [Example 63, N-(6-bromo-1-cyclobutyl-1H-benzo[d]imidazol-2-yl)-3,3-dimethylbutanamide]"
6,++,"CC(C)c1ccc2nc(NC(=O)CC(C)(C)C)n(C3CCC3)c2c1 [Example 64, N-(1-cyclobutyl-6-isopropyl-1H-benzo[d]imidazol-2-yl)-3,3-dimethylbutanamide]"
7,+,"CC(C)c1ccc2nc(NC(=O)[C@@H](C)C(C)C)n(C3CCC3)c2c1 [Example 65, (S)—N-(1-cyclobutyl-6-isopropyl-1H-benzo[d]imidazol-2-yl)-2,3-dimethylbutanamide]"
8,++,"CC(C)(C)CC(=O)Nc1nc2ccc(C(F)F)cc2n1C1CCC1 [Example 66, N-(1-cyclobutyl-6-(difluoromethyl)-1H-benzo[d]imidazol-2-yl)-3,3-dimethylbutanamide]"
9,+/−,"COC(=O)c1cccc2nc(NC(=O)CC(C)(C)C)n(C3CCC3)c12 [Example 67, methyl 1-cyclobutyl-2-(3,3-dimethylbutanamido)-1H-benzo[d]imidazole-7-carboxylate]"
10,+,"CC(C)(C)CC(=O)Nc1nc2cccc(CO)c2n1C1CCC1 [Example 68, N-(1-cyclobutyl-7-(hydroxymethyl)-1H-benzo[d]imidazol-2-yl)-3,3-dimethylbutanamide]"
11,+,"Cc1cc(-n2c(NC(=O)CC(C)(C)C)nc3ccc(C#N)cc32)on1 [Example 69, N-(6-cyano-1-(3-methylisoxazol-5-yl)-1H-benzo[d]imidazol-2-yl)-3,3-dimethylbutanamide]"
12,+/−,"C[C@@](O)(CC(=O)Nc1nc2ccc(C#N)cc2n1-c1ccc(F)cc1)c1ccccc1 [Example 70, (R)-N-(6-cyano-1-(4-fluorophenyl)-1H-benzo[d]imidazol-2-yl)-3-hydroxy-3-phenylbutanamide]"
13,+,"C[C@H](C(=O)Nc1nc2ccc(C#N)cc2n1-c1ccc(F)cc1)C(C)(C)C [Example 71, (S)-N-(6-cyano-1-(4-fluorophenyl)-1H-benzo[d]imidazol-2-yl)-2,3,3-trimethylbutanamide]"
14,+/−,"CC(C)(C(=O)Nc1nc2ccc(C#N)cc2n1C1CCC1)C(O)c1ccccc1 (centres unmarked) [Example 72, N-(6-cyano-1-cyclobutyl-1H-benzo[d]imidazol-2-yl)-3-hydroxy-2,2-dimethyl-3-phenylpropanamide]"
15,+/−,"CC(C)[C@H](C)C(=O)Nc1nc2ccc(C#N)cc2n1-c1ccc(F)cn1 [Example 73, (S)-N-(6-cyano-1-(5-fluoropyridin-2-yl)-1H-benzo[d]imidazol-2-yl)-2,3-dimethylbutanamide]"
16,+,"CC(C)(C)CC(=O)Nc1nc2ccc(C#N)cc2n1-c1ccc(F)cn1 [Example 74, N-(6-cyano-1-(5-fluoropyridin-2-yl)-1H-benzo[d]imidazol-2-yl)-3,3-dimethylbutanamide]"
17,++,"C[C@H](C(=O)Nc1nc2ccc(C#N)cc2n1-c1ccc(F)cn1)C(C)(C)C [Example 75, (S)-N-(6-cyano-1-(5-fluoropyridin-2-yl)-1H-benzo[d]imidazol-2-yl)-2,3,3-trimethylbutanamide]"
18,+,"C[C@@H](C(=O)Nc1nc2ccc(C#N)cc2n1C1CCC1)C(C)(C)C [Example 76, (R)-N-(6-cyano-1-cyclobutyl-1H-benzo[d]imidazol-2-yl)-2,3,3-trimethylbutanamide]"
19,+,"CC(C(=O)Nc1nc2ccc(C#N)cc2n1C1CCC1)C(C)(C)C (centres unmarked) [Example 77, N-(6-cyano-1-cyclobutyl-1H-benzo[d]imidazol-2-yl)-2,3,3-trimethylbutanamide]"
20,+,"CC(O)(CC(=O)Nc1nc2ccc(C#N)cc2n1C1CCC1)C1CCC1 (centres unmarked) [Example 78, N-(6-cyano-1-cyclobutyl-1H-benzo[d]imidazol-2-yl)-3-cyclobutyl-3-hydroxybutanamide]"
21,+,"C[C@](O)(CC(=O)Nc1nc2ccc(C#N)cc2n1-c1ccc(F)cn1)c1ccccc1 [Example 79, (S)-N-(6-cyano-1-(5-fluoropyridin-2-yl)-1H-benzo[d]imidazol-2-yl)-3-hydroxy-3-phenylbutanamide]"
22,+,"CC(O)(CC(=O)Nc1nc2ccc(C#N)cc2n1C1CCC1)C1CCCC1 (centres unmarked) [Example 80, N-(6-cyano-1-cyclobutyl-1H-benzo[d]imidazol-2-yl)-3-cyclopentyl-3-hydroxybutanamide]"
23,+,"N#Cc1ccc2nc(NC(=O)CC3(O)CCCC3)n(C3CCC3)c2c1 [Example 81, N-(6-cyano-1-cyclobutyl-1H-benzo[d]imidazol-2-yl)-2-(1-hydroxycyclopentyl)acetamide]"
24,+/−,"CC(C)(C)CC(=O)Nc1nc2cccc(C(C)(C)O)c2n1C1CCC1 [Example 82, N-(1-cyclobutyl-7-(2-hydroxypropan-2-yl)-1H-benzo[d]imidazol-2-yl)-3,3-dimethylbutanamide]"
25,++,"CC1(C)CCC[C@@H](CC(=O)Nc2nc3ccc(C(C)(C)O)cc3n2C2CCC2)O1 [Example 83, (S)-N-(1-cyclobutyl-6-(2-hydroxypropan-2-yl)-1H-benzo[d]imidazol-2-yl)-2-(6,6-dimethyltetrahydro-2H-pyran-2-yl)acetamide]"
26,+,"CC(C)(O)c1ccc2nc(NC(=O)C[C@](C)(O)c3ccccc3)n(C3CCC3)c2c1 [Example 84, (S)-N-(1-cyclobutyl-6-(2-hydroxypropan-2-yl)-1H-benzo[d]imidazol-2-yl)-3-hydroxy-3-phenylbutanamide]"
27,+/−,"CC(C)(O)CC(=O)Nc1nc2ccc(C(C)(C)O)cc2n1C1CCC1 [Example 85, N-(1-cyclobutyl-6-(2-hydroxypropan-2-yl)-1H-benzo[d]imidazol-2-yl)-3-hydroxy-3-methylbutanamide]"
28,++,"CC(C)(O)c1ccc2nc(NC(=O)C3CC4(CCC4)C3)n(C3CCC3)c2c1 [Example 87, N-(1-cyclobutyl-6-(2-hydroxypropan-2-yl)-1H-benzo[d]imidazol-2-yl)spiro[3.3]heptane-2-carboxamide]"

row,Structure (SMILES),Kv7.2/7.3 Activity: increase in current over baseline
1,"C[C@H](C(=O)Nc1nc2ccc(C(C)(C)O)cc2n1C1CCC1)C(C)(C)C [Example 86, (S)-N-(1-cyclobutyl-6-(2-hydroxypropan-2-yl)-1H-benzo[d]imidazol-2-yl)-2,3,3-trimethylbutanamide]",+++ (>6-fold increase over baseline (+++))
